Assays:
[1] = system: MCF-7 cells; assay: Morphology and growth of MCF-7 cells in 2D monolayer culture treated with doxorubicin; format: cell-based, human; settings: MCF-7 2D monolayer, 3 days
[2] = system: MCF-7 tissueoids; assay: Morphology and growth of MCF-7 tissueoids on AXTEX-4D treated with doxorubicin; format: cell-based, human; settings: 3 days
[3] = system: MCF-7 cells; assay: Prestoblue viability of MCF-7 2D monolayer culture; format: cell-based; settings: Homo sapiens, MCF7, 1 μM doxorubicin, 48 hrs, read-out: viability (prestoblue, normalized with vehicle control as 100%)
[4] = system: MCF-7 tissueoids; assay: Prestoblue viability of MCF-7 tissueoids (3D) on AXTEX-4D

COc1cccc2c1C(=O)c1c(O)c3c(c(O)c1C2=O)C[C@@](O)(C(=O)CO)C[C@@H]3O[C@H]1C[C@H](N)[C@H](O)[C@H](C)O1 [doxorubicin, Doxorubicin]
morphology (vacuoles) in 2D culture ([1]; 1 μM doxorubicin): Vacuoles were observed
growth inhibition in 2D culture ([1]; vs DMSO vehicle control): Dose-dependent growth inhibition
growth of tissueoids ([2]; 2.5 μM doxorubicin): not inhibited
growth of tissueoids ([2]; 5 μM doxorubicin): Partial growth inhibition
tissueoid morphology at higher concentration ([2]; higher concentration (5)): shrinking of the tissueoid was visible
viability at 1 µM [3]: 35%
viability at 1 µM ([4]; Homo sapiens, MCF7, 48 h, read-out: viability (prestoblue, normalized with vehicle control as 100%)): ~80%
resistance of tissueoids compared to vehicle control ([4]; MCF-7 tissueoids, 1 μM doxorubicin): partial resistance
